# Reference: US8389247B2, “Physiogenomic method for predicting diabetes and metabolic syndromes induced by psychotropic drugs” (priority 2006, dated 2013)
# Test: Outcome variables of patients on each psychotropic drug broken down by demographic factors (Covariates tables)
# Assay type: in vivo, human
# Text: Various SNPs associated with, for example, the observation of various parameters of metabolic syndromes in patients on psychotropic drugs were screened. The endpoints analyzed were the blood levels of LDL, HDL, and glucose; blood pressure; body mass index; waist circumference; and metabolic syndromes index. The physiogenomic model was developed using the following procedure: 1) Establish a covariate model using only the demographic and clinical variables, 2) Screen for associated genetic markers by testing each SNP against the unexplained residual of the covariate model, and 3) Establish a revised model incorporating the significant associations from the SNP screen.
smiles,measurement,setting,value
"Cc1nc2n(c(=O)c1CCN1CCC(c3noc4cc(F)ccc34)CC1)CCCC2 [Risperidone, risperidone]",BM,Age 20-30,77.82
same,BMI,Age 20-30,25.55
same,Glucose,Age 20-30,85.42
same,HDL,Age 20-30,43.50
same,LDL,Age 20-30,93.20
same,TC,Age 20-30,166.80
same,Waist,Age 20-30,92.78
same,dBP,Age 20-30,75.20
same,log (TG),Age 20-30,4.801
same,sBP,Age 20-30,116.80
same,BM,Age 30-40,77.98
same,BMI,Age 30-40,25.60
same,Glucose,Age 30-40,93.38
same,HDL,Age 30-40,52.19
same,LDL,Age 30-40,92.69
same,TC,Age 30-40,185.54
same,Waist,Age 30-40,92.34
same,dBP,Age 30-40,76.77
same,log (TG),Age 30-40,5.129
same,sBP,Age 30-40,118.04
same,BM,Age 40-50,77.81
same,BMI,Age 40-50,25.80
same,Glucose,Age 40-50,95.03
same,HDL,Age 40-50,52.00
same,LDL,Age 40-50,100.78
same,TC,Age 40-50,181.71
same,Waist,Age 40-50,97.23
same,dBP,Age 40-50,75.10
same,log (TG),Age 40-50,4.888
same,sBP,Age 40-50,115.73
same,BM,Age 50-60,76.52
same,BMI,Age 50-60,29.45
same,Glucose,Age 50-60,109.00
same,HDL,Age 50-60,59.50
same,LDL,Age 50-60,85.80
same,TC,Age 50-60,185.70
same,Waist,Age 50-60,100.50
same,dBP,Age 50-60,74.20
same,log (TG),Age 50-60,5.182
same,sBP,Age 50-60,123.80
same,BM,Age 60-70,87.60
same,BMI,Age 60-70,26.40
same,Glucose,Age 60-70,103.00
same,HDL,Age 60-70,54.00
same,LDL,Age 60-70,111.00
same,TC,Age 60-70,191.00
same,Waist,Age 60-70,103.00
same,dBP,Age 60-70,80.00
same,log (TG),Age 60-70,4.875
same,sBP,Age 60-70,118.00
same,BM,Age <20,97.73
same,BMI,Age <20,28.93
same,Glucose,Age <20,91.67
same,HDL,Age <20,60.00
same,LDL,Age <20,113.00
same,TC,Age <20,197.33
same,Waist,Age <20,110.33
same,dBP,Age <20,71.33
same,log (TG),Age <20,4.778
same,sBP,Age <20,123.33
same,BM,All,78.42
same,BMI,All,26.16
same,Glucose,All,94.14
same,HDL,All,51.37
same,LDL,All,96.18
same,TC,All,180.69
same,Waist,All,95.90
same,dBP,All,75.40
same,log (TG),All,4.958
same,sBP,All,117.58
same,BM,Gender female,73.38
same,BMI,Gender female,27.05
same,Glucose,Gender female,91.57
same,HDL,Gender female,55.74
same,LDL,Gender female,94.32
same,TC,Gender female,179.74
same,Waist,Gender female,95.39
same,dBP,Gender female,74.74
same,log (TG),Gender female,4.861
same,sBP,Gender female,116.84
same,BM,Gender male,81.45
same,BMI,Gender male,25.62
same,Glucose,Gender male,95.68
same,HDL,Gender male,48.73
same,LDL,Gender male,97.30
same,TC,Gender male,181.27
same,Waist,Gender male,96.20
same,dBP,Gender male,75.79
same,log (TG),Gender male,5.017
same,sBP,Gender male,118.03
same,BM,Heritage AA,80.46
same,BMI,Heritage AA,27.14
same,Glucose,Heritage AA,115.56
same,HDL,Heritage AA,58.50
same,LDL,Heritage AA,95.50
same,TC,Heritage AA,173.80
same,Waist,Heritage AA,92.90
same,dBP,Heritage AA,78.00
same,log (TG),Heritage AA,4.478
same,sBP,Heritage AA,117.80
same,BM,Heritage Cauc.,78.19
same,BMI,Heritage Cauc.,26.05
same,Glucose,Heritage Cauc.,92.00
same,HDL,Heritage Cauc.,50.58
same,LDL,Heritage Cauc.,96.25
same,TC,Heritage Cauc.,181.45
same,Waist,Heritage Cauc.,96.23
same,dBP,Heritage Cauc.,75.11
same,log (TG),Heritage Cauc.,5.011
same,sBP,Heritage Cauc.,117.56
same,BM,patients on the named drug,78.42
same,BMI,patients on the named drug,26.16
same,Glucose,patients on the named drug,94.14
same,HDL,patients on the named drug,51.37
same,LDL,patients on the named drug,96.18
same,Log (TG),patients on the named drug,4.958
same,TC,patients on the named drug,180.69
same,Waist,patients on the named drug,95.90
same,dBP,patients on the named drug,75.40
same,sBP,patients on the named drug,117.58
"OCCOCCN1CCN(C2=Nc3ccccc3Sc3ccccc32)CC1 [Quetiapine, quetiapine]",LDL (LDL cholesterol level),Age 20-30,91.35
same,LDL (LDL cholesterol level),Age 30-40,102.92
same,LDL (LDL cholesterol level),Age 40-50,94.39
same,LDL (LDL cholesterol level),Age 50-60,97.33
same,LDL (LDL cholesterol level),Age 60-70,88.00
same,LDL (LDL cholesterol level),Age <20,87.40
same,LDL (LDL cholesterol level),All patients on the drug,96.71
same,LDL (LDL cholesterol level),Gender female,92.89
same,LDL (LDL cholesterol level),Gender male,99.19
same,LDL (LDL cholesterol level),Heritage AA,94.38
same,LDL (LDL cholesterol level),Heritage Cauc.,96.93
same,BM,"human, in vivo",87.05
same,BMI,"human, in vivo",29.44
same,Glucose,"human, in vivo",92.08
same,HDL,"human, in vivo",49.79
same,Log (TG),"human, in vivo",5.263
same,MSI,"human, in vivo",0.2625
same,TC,"human, in vivo",192.33
same,dBP,"human, in vivo",75.04
same,sBP,"human, in vivo",120.07
same,LDL,patients on the named drug,96.71
